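Each compound was tested at five concentrations against cells in 96-well plates for 48 hours. At the GI50, growth is halved.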 Calls of active or inactive are those of the source. Rule as the data show it: active = GI50 up to about 1.1 µM and inactive = higher.
Experiments:
Experiment in all cases: DTP human tumour cell line panel, 48 h
[1] = tested on: 786-0
[2] = tested on: BT-549
[3] = tested on: CCRF-CEM
[4] = tested on: NCI-H23
[5] = tested on: NCI-H460
[6] = tested on: NCI-H522
[7] = tested on: NCI/ADR-RES
[8] = tested on: OVCAR-3
[9] = tested on: RPMI-8226
[10] = tested on: RXF 393
[11] = tested on: SF-268
[12] = tested on: SF-295
[13] = tested on: SK-MEL-28
[14] = tested on: SNB-75
[15] = tested on: SR
[16] = tested on: SW-620
[17] = tested on: U-251
[18] = tested on: UACC-62
[19] = tested on: UO-31
[20] = tested on: COLO 205

Measured: GI50

Cc1ccc(CCCC(=O)O)cc1C
inactive: [1] > 100 µM | [2] > 100 µM | [3] > 100 µM | [4] > 100 µM | [5] > 100 µM | [6] > 100 µM | [7] > 100 µM | [8] > 100 µM | [9] > 100 µM | [10] > 100 µM | [11] 63.7 µM | [12] > 100 µM | [13] > 100 µM | [14] 39.1 µM | [15] > 100 µM | [16] > 100 µM | [17] > 100 µM | [18] > 100 µM | [19] > 100 µM

N/N=C(\C(=O)Nc1ccc([N+](=O)[O-])cc1)C(C1=Nc2cc([N+](=O)[O-])ccc2NC1)[N+](=O)[O-] (configuration not stated)
inactive: [1] > 100 µM | [2] > 100 µM | [3] 65.2 µM | [4] > 100 µM | [5] 42.2 µM | [6] 25.3 µM | [7] > 100 µM | [8] > 100 µM | [9] > 100 µM | [10] > 100 µM | [11] > 100 µM | [12] > 100 µM | [13] > 100 µM | [14] > 100 µM | [15] > 100 µM | [16] 91.4 µM | [17] > 100 µM | [18] > 100 µM | [19] 22.1 µM

O=C(O)CN1CCN2CCOCCN(CC1)CCN(CC(=O)O)CC2
inactive: [1] > 100 µM | [2] > 100 µM | [3] > 100 µM | [20] > 100 µM | [4] > 100 µM | [5] > 100 µM | [6] > 100 µM | [7] > 100 µM | [8] > 100 µM | [9] > 100 µM | [10] > 100 µM | [11] > 100 µM | [12] > 100 µM | [13] > 100 µM | [14] > 100 µM | [15] > 100 µM | [16] > 100 µM | [17] > 100 µM | [18] > 100 µM | [19] > 100 µM

CCCCNc1nc(N)nc(Nc2ccc(Br)cc2)c1N=O
inactive: [1] 17.5 µM | [2] 44.7 µM | [3] 42.1 µM | [20] 47 µM | [4] > 100 µM | [5] 70 µM | [6] 36.4 µM | [7] 39.4 µM | [8] 56.5 µM | [9] 52 µM | [10] 32.7 µM | [11] > 100 µM | [13] > 100 µM | [14] 52.2 µM | [15] 6.43 µM | [16] > 100 µM | [17] 31.1 µM | [18] 62.7 µM | [19] 28.1 µM

CC1(C)CC[C@]2(C(=O)O)CC[C@]3(C)C(=CC[C@@H]4[C@@]5(C)CC[C@H](OC6OC(C(=O)O)C(O)C(O)C6O)C(C)(C)[C@@H]5CC[C@]43C)[C@@H]2C1 (some centres not stated)
inactive: [1] 17.5 µM | [2] 20.9 µM | [3] 21 µM | [20] 16.9 µM | [4] 18.9 µM | [5] 18.7 µM | [6] 19.4 µM | [7] 17.7 µM | [8] 14.2 µM | [9] 19.8 µM | [10] 16.7 µM | [11] 17.3 µM | [12] 15.2 µM | [13] 19.6 µM | [14] 18.1 µM | [15] 15 µM | [16] 17.4 µM | [17] 14.9 µM | [18] 18.4 µM | [19] 19.5 µM

— ChEMBL document CHEMBL1201862, “PubChem BioAssay data set” (2004)
